Experiment [1] concerns AT-2-HIV-pulsed DCs. Kind of experiment: In vivo cytotoxic assay, HIV-specific cytolysis. As to conditions: AT-2-HIV-immunized BALB/c mice; 5 mg/kg daily intramuscular for 7 days; P<0.01. On the procedure:
(§1) Aldrithiol-2 (AT-2)-inactivated HIV (10^9/50 μl) (LU and ANDRIEU, J. Virol., vol. 75, p: 8949-56, 2001) or human chromogranin A (hCgA, a protein associated with neuro-endocrine tumours (DEGORCE et al., Br. J. Cancer., vol. 79, p: 65-71, 1999); 10 μg/50 μl) plus incomplete Freund's adjuvant (IFA) (50 μl) were injected subcutaneously into 4- to 6-week-old male BALB/c mice (Institute of Laboratory Animal Science, Beijing, China). Mice immunized with AT-2-inactivated HIV (n=12) or hCgA (n=12) were randomly divided into two subgroups. One subgroup (n=6) received daily intramuscular injection of 5-azacytidine (Sigma, St Louis, Mo.) at a dose of 5 mg/kg for 7 days and the other subgroup (n=6) received 0.9% sodium chloride as control. Animals were killed at day 7 for ex vivo analysis. In addition, non-immunized mice (n=6) injected with IFA alone were also killed on the same day to establish a background control.
(§2) This assay was performed as described previously (AICHELE et al., Immunity, vol. 6, p: 519-29, 1997). Briefly, target DCs were prepared from BALB/c bone marrow cell suspensions (LUTZ et al., above mentioned, 1999). […] In vivo HIV- or hCgA-specific cytolysis was assessed by calculating the ratio of non-pulsed DCs/pulsed DCs. […]

Experiment [2] relates to AT-2-HIV-pulsed DCs. Kind of experiment: Ex vivo cytotoxic assay, HIV-specific cytolysis by splenocytes. In kind it is in vivo. As to conditions: AT-2-HIV-immunized BALB/c mice; 5 mg/kg daily intramuscular for 7 days; P<0.01. Here is the method:
as §1, with “In addition, non-immunized mice (n=6) injected with IFA alone were also killed on the same day to establish a background control.” left out
(§3) Splenocytes were taken from 7-day-immunized mice and plated into Micro Tubes-Bulk (Bio-Rad, Hercules, Calif.) in the presence of CFSE (Molecular Probes, PoortGebouw, The Netherlands)-labelled AT-2-HIV- or hCgA-pulsed dendritic cells (DCs) at different E:T ratios for 4 h at 37° C. […] Target cytolysis was analyzed on a FACSCalibur (BD Immunocytometry System, San Jose, Calif.). Virus- or tumour-specific cytolytic activity was determined by calculating the percentage of CFSE/PI-staining DCs after subtraction of the non-specific CFSE/PI-staining of non-pulsed DCs. […]

Experiment [3] deals with hCgA-pulsed DCs. Kind of experiment: In vivo cytotoxic assay, hCgA-specific cytolysis. As to conditions: hCgA-immunized BALB/c mice; 5 mg/kg daily intramuscular for 7 days; P<0.01. Here is the method:
as §1, §2

Experiment [4] deals with relapsed or refractory acute myelogenous leukaemia (AML) and myolodysplastic syndrome (MDS). As to conditions: cited from earlier work.
Experiment [5] concerns hCgA-pulsed DCs. Kind of experiment: Ex vivo cytotoxic assay, hCgA-specific cytolysis by splenocytes. Type of experiment: in vivo. The following applies: hCgA-immunized BALB/c mice; 5 mg/kg daily intramuscular for 7 days; P<0.01. Here is the method:
as §1, with “In addition, non-immunized mice (n=6) injected with IFA alone were also killed on the same day to establish a background control.” left out
as §3

The next experiment deals with solid tumors. As to conditions: phase II trials, variety of doses and schedules; cited from earlier work.
For another experiment, the system named is latent EBV promoters. The following applies: patients with EBV-associated tumors; cited from earlier work.
Experiment [6] concerns P16 transcription from a methylation-silenced promoter. The following applies: prostate cancer cells that grow in nude mice; cited from earlier work.

For `Nc1ncn([C@@H]2O[C@H](CO)[C@@H](O)[C@H]2O)c(=O)n1` [5-Azacytidine], the “Increase of in vivo HIV-specific cytolysis of AT-2-HIV-pulsed DCs vs untreated immunized animals” value in the experiment with AT-2-HIV-pulsed DCs [1] was over 3 fold. Besides, in the experiment on AT-2-HIV-pulsed DCs [2], the “Increase of ex vivo HIV-specific cytolysis of AT-2-HIV-pulsed DCs by splenocytes vs untreated immunized animals” value was over 2 fold. Moreover, the “Increase of in vivo hCgA-specific cytolysis of hCgA-pulsed DCs vs untreated immunized animals” value in the experiment with hCgA-pulsed DCs [3] was over 3 fold. The “Clinical activity as single agent” value in experiment [4] is “limited activity”. The “Increase of ex vivo hCgA-specific cytolysis of hCgA-pulsed DCs by splenocytes vs untreated immunized animals” value in the experiment on hCgA-pulsed DCs [5] was over 2 fold. Besides, the “Clinical results of single agent in solid tumors” value in the experiment with solid tumors was “uniformly disappointing”. Besides, the “CpG methylation of latent EBV promoters in tumor tissues” value in the experiment on latent EBV promoters was “reversed the dense CpG methylation”.
For the compound `CCN(CC)CCNC(=O)c1ccc(N)cc1` [procanaimide], the “P16 transcription from a methylation-silenced promoter” value in experiment [6] was “reactivate the P16 transcription”.

Source of the values: patent US20050266012A1 (priority 2004, published 2005).
